Results reported in article PMC3671673, “In Vitro Morphological Assessment of Apoptosis Induced by Antiproliferative Constituents from the Rhizomes of Curcuma zedoaria” (Evidence-based Complementary and Alternative Medicine : eCAM, 2013).
In brackets after ≈: the same amount, converted by molar mass. Marks after values point to notes of the source that are not given here.

Columns and labels:
[1] = system: noncancer human lung fibroblast cell line (MRC-5); assay: Neutral red cytotoxicity assay, MRC-5; assay type: cell-based; settings: MRC5, isolated compounds, 72 h, mean ± SD of three replicates, read-out: IC50 (μg/mL) MRC-5
Method: The human cancer cells KB, Ca Ski, MCF-7, HCT-116, A549, and noncancer human cell lines (MRC-5) were purchased from the American Tissue Culture Collection (ATCC, USA). The supplemented RPMI 1640 media and eagle minimum essential medium (EMEM) were purchased from Sigma-Aldrich, USA. The supplements or antibiotics such as foetal bovine serum (FBS), penicillin/streptomycin (P/S) (100 μg/mL), amphotericin B (50 μg/mL), and accutase were purchased from PAA Laboratories, Austria. Sodium pyruvate (11 mg/mL) purchased from Sigma-Aldrich, USA. The cells were cultured in a SHEL LAB water-jacketed CO2 incubator with […] tissue culture flasks (Nunc, Denmark), which was observed routinely under inverted microscope (Leica DMI3000 B, Germany) for any contamination and seeded into 96-well flat bottom microtiter plate (Nunc, Denmark). The extract or pure compounds was dissolved in dimethyl sulfoxide (DMSO, Molecular Biology Grade, >99.9%) from Sigma-Aldrich, USA. Microtiter plate incubator shaker (LT Biomax 500) was used and absorbance was measured at 540 nm using an ELISA microplate reader (EMax microplate reader of Molecular Devices, USA). MCF-7 and Ca Ski were cultured in RPMI 1640 media supplemented with 10% v/v FBS, P/S, and amphotericin B and MRC-5 in EMEM media with 10% v/v FBS, P/S, amphotericin B, and sodium pyruvate. The cells were cultured in tissue culture flask in 5% CO2 incubator kept at 37°C in a humidified atmosphere and observed routinely under inverted microscope from any contaminations. Each fresh medium was replaced every 2 or 3 days until cell confluence was achieved and the cells were detached by using accutase.
The in vitro cytotoxicity activity was performed using the neutral red cytotoxicity assay based on the initial protocol as described earlier with some modifications. Briefly, cells were detached from the tissue culture flask with 1.0 mL solution of accutase and PBS solution. The cell pellet was obtained by centrifugation at 1,000 rpm for 5 minutes. The density of the viable cells was counted by 0.4% of trypan blue exclusion in a haemocytometer. Cells were then plated in 96-well microtiter plate (Nunc), at a concentration of 1 × 10^4 cells/well and incubated in a CO2 incubator at 37°C to allow the cells to adhere. After 24 h, the cells were treated with six different concentrations, that is, 1, 10, 25, 50, 75, and 100 μg/mL of each tested agent in three replicates. The plates were incubated for 72 h at 37°C in a 5% CO2 incubator. The untreated cells were regarded as a negative control, whilst cells incubated only with DMSO (0.5%, v/v) were used as a vehicle control. No effect due to the DMSO was observed. Doxorubicin was used as the positive control. After 72 h, the old medium was substituted with fresh medium containing 50 μg/mL neutral red. The 96-well plates were placed into incubator for 3 h. This is to allow the uptake of the vital dye into the lysosomes of viable and undamaged cells. Then, the media was discarded and cells were washed with 200 μL of neutral red washing solution. The dye was eluted from the cells by adding neutral red resorb solution (200 μL). The plate was further incubated for 30 min with rapid agitation on a microtiter plate shaker. The optical density (OD) of the eluted dye was read at 540 nm using a microplate reader. The experiments were conducted in triplicates. […] Cytotoxicity of each test agent is expressed as IC50 value. […]

MCF-7 cells [2] = assay: Hoechst 33342/PI dual staining, quantification of apoptotic/necrotic cells, MCF-7; assay type: cell-based, human; settings: 48 h
Method: (§1) Briefly, cells were grown on tissue culture dishes and treated with or without tested compounds at concentrations of 12.5, 25, 40, and 50 μg/mL. After 48 hours, the cells were harvested and washed with cold PBS to a density of 5 × 10^5 cells/mL. The cells were suspended in Hoechst 33342 solution (10 μg/mL) and were incubated at 37°C in CO2 for 7 minutes. After incubation with Hoechst 33342, the cells were counter stained with propidium iodide (2.5 μg/mL). The samples were maintained in the dark for 15 minutes. After staining, an aliquot of cell suspension was placed on a glass microscope slides. The slides were observed immediately under inverted fluorescence microscope (DM16000B, Germany) using UV/488 dual excitation and the fluorescence was measured at ~460 nm emission of Hoechst 33342 dye and >575 nm emission of propidium iodide at 630x magnification. At least 200 total target cells were counted and the numbers of each four cellular states were recorded and analyzed using fluorescence microscopy for quantification of apoptosis and necrosis. The experiment was conducted in triplicates. The percentages of apoptotic and necrotic cells were determined according to the following formula [27]: (1) Percentage of Apoptotic Cells (%) =(LA+DA)/ LN+LA+DN+DA×100,Percentage of Necrotic Cells (%) = DN/LN+LA+DN+DA×100, where LN are live target cells with normal nuclei (Hoechst 33342/PI: blue chromatin with organized structure), LA are live cells with apoptotic nuclei (Hoechst 33342/PI: bright blue chromatin that is highly condensed or fragmented), DN are dead cells with normal nuclei (Hoechst 33342/PI: pink chromatin with organized structure), and DA are dead cells with apoptotic nuclei (Hoechst 33342/PI: bright pink chromatin that is, highly condensed or fragmented).

HCT-116 cells = assay: Hoechst 33342/PI dual staining, quantification of apoptotic/necrotic cells, HCT-116; assay type: cell-based, human; settings: 48 h
Method: as §1

MCF-7 cells [3] = assay: Morphological changes by phase contrast inverted microscope, MCF-7; assay type: cell-based, human; settings: MCF-7, 48 h, 12.5-50 μg/mL, phase contrast 200x
Method: Observation of morphological changes of apoptotic cells was performed according to the method with slight modifications. Briefly, 5 × 10^5 cells were incubated for 48 hours with or without selected compounds at concentrations of 12.5, 25, 40, and 50 μg/mL in a 60 mm diameter tissue culture dishes. The medium was discarded and cells were washed once with PBS. The morphological changes of the apoptotic cells were observed using phase contrast inverted microscope (Leica DMI 3000B, Germany) at 200x magnifications.

Row | SMILES | IC50 [1] [µg/mL] | Percentage of apoptotic cells (%) (MCF-7 cells [2]; MCF-7, 12.5 μg/mL) | Percentage of necrotic cells (%) (MCF-7 cells [2]; MCF-7, 12.5 μg/mL) | Percentage of apoptotic cells (%) (MCF-7 cells [2]; MCF-7, 25 μg/mL) | Percentage of necrotic cells (%) (MCF-7 cells [2]; MCF-7, 25 μg/mL) | Percentage of apoptotic cells (%) (MCF-7 cells [2]; MCF-7, 40 μg/mL) | Percentage of necrotic cells (%) (MCF-7 cells [2]; MCF-7, 40 μg/mL) | Percentage of apoptotic cells (%) (MCF-7 cells [2]; MCF-7, 50 μg/mL) | Percentage of necrotic cells (%) (MCF-7 cells [2]; MCF-7, 50 μg/mL) | Percentage of apoptotic cells (%) (HCT-116 cells; HCT-116, 12.5 μg/mL) | Percentage of necrotic cells (%) (HCT-116 cells; HCT-116, 12.5 μg/mL) | Percentage of apoptotic cells (%) (HCT-116 cells; HCT-116, 25 μg/mL) | Percentage of necrotic cells (%) (HCT-116 cells; HCT-116, 25 μg/mL) | Percentage of apoptotic cells (%) (HCT-116 cells; HCT-116, 40 μg/mL) | Percentage of necrotic cells (%) (HCT-116 cells; HCT-116, 40 μg/mL) | Percentage of apoptotic cells (%) (HCT-116 cells; HCT-116, 50 μg/mL) | Percentage of necrotic cells (%) (HCT-116 cells; HCT-116, 50 μg/mL) | morphological changes (in words) (MCF-7 cells [3]) | other results
1 | C=CC1(C)Cc2occ(C)c2C(=O)C1C(=C)C (stereo not drawn) [Curzerenone, curzerenone] | 20 ± 1.2 (≈ 86.8 µM) | 4.83 ± 0.58^a % | 2.00 ± 1.30^a % | 5.83 ± 0.76^a % | 3.83 ± 0.60^b % | 53.00 ± 2.2^b % | 5.50 ± 1.30^c % | 57.33 ± 4.65^b % | 17.83 ± 2.60^d % | 45.00 ± 0.5^a % | 9.00 ± 1.50^a % | 50.00 ± 0.5^b % | 15.33 ± 0.80^b % | 46.5 ± 1.44^a % | 25.00 ± 0.50^c % | 49.17 ± 1.4^b % | 28.00 ± 0.50^d % | typical apoptotic features | Percentage of apoptotic cells (%) (MCF-7 cells [2]; MCF-7, 40 μg/mL, listed as curzerenone): 53.0 ± 2.2%; Percentage of apoptotic cells (%) (HCT-116 cells; HCT-116, 25 μg/mL, listed as curzerenone): 50.0 ± 0.5%
2 | C=C1CCC(C(C)C)=CC2C1CC[C@@]2(C)O (stereo partly drawn) [Alismol, alismol] | > 100 | 6.17 ± 0.58^a % | 3.83 ± 0.30^a % | 9.17 ± 1.5^b % | 5.17 ± 1.50^b % | 43.00 ± 1.0^d % | 38.33 ± 1.30^c % | 29.63 ± 1.1^c % | 58.97 ± 1.10^d % | 48.83 ± 1.61^b % | 19.50 ± 1.00^a % | 55.33 ± 3.01^b % | 26.00 ± 1.30^b % | 21.33 ± 2.02^a % | 67.67 ± 2.60^c % | 19.00 ± 0.87^a % | 76.67 ± 0.80^d % | typical apoptotic features | Percentage of apoptotic cells (%) (MCF-7 cells [2]; MCF-7, 40 μg/mL, listed as alismol): 43.0 ± 1.0%; Percentage of necrotic cells (%) (MCF-7 cells [2]; MCF-7, 50 μg/mL, listed as alismol): 59.0 ± 1.1%; Percentage of apoptotic cells (%) (HCT-116 cells; HCT-116, 25 μg/mL, listed as alismol): 55.3 ± 3.0%; Percentage of necrotic cells (%) (HCT-116 cells; HCT-116, 50 μg/mL, listed as alismol): 76.7 ± 0.8%
